Structures can show the parent of a compound that is named as a salt.

From US20090156642A1, “5-Membered heterocyclic compound” (Takeda Pharmaceutical Company Limited, priority 2007, published 2009) come the findings set out here.

For the test, the target named is T1, proton, potassium-adenosine triphosphatase (H+,K+-ATPase) (Sus scrofa, UniProt P19156).
T1 construct: a gastric mucous membrane microsomal fraction was prepared from the stomach of swine
T1 sequence (P19156 2-1034): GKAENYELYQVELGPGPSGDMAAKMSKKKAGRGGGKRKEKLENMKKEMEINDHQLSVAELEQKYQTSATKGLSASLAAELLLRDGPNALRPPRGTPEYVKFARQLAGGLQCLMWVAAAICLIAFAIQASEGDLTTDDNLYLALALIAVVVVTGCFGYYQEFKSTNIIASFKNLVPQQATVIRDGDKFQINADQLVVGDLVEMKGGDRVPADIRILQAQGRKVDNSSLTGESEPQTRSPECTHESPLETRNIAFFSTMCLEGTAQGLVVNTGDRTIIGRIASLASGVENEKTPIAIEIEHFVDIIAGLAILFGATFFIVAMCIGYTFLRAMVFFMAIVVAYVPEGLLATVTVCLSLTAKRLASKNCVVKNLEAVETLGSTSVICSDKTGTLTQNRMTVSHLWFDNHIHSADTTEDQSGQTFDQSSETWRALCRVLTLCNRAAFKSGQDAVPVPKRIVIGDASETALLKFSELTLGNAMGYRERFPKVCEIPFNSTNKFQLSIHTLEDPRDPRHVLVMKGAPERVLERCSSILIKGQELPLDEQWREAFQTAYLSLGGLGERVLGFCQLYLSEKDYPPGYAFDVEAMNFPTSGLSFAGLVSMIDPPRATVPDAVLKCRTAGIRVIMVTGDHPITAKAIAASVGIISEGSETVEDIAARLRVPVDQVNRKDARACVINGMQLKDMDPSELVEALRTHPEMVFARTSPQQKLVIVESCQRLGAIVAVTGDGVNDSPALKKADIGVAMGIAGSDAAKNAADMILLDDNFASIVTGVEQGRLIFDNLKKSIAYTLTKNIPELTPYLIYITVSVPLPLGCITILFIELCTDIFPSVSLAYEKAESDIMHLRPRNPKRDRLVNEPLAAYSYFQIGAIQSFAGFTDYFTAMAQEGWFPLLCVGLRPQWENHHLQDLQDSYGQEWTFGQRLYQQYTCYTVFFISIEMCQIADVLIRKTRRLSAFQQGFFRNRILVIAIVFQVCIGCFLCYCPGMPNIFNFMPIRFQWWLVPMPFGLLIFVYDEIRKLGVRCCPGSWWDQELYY
T1 sequence (P18434 whole entry partner): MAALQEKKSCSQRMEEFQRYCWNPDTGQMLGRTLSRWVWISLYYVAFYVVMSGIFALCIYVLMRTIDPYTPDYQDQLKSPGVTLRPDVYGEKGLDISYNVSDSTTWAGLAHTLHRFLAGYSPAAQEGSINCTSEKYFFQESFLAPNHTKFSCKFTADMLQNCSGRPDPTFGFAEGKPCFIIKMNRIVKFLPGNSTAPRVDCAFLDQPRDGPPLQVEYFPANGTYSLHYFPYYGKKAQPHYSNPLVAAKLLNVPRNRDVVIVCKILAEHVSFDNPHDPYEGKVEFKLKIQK
Briefly: Proton potassium-adenosine triphosphatase (H+,K+-ATPase) inhibitory activity test. It counts as biochemical. To be noted: swine gastric mucous membrane microsomal fraction, pH 6.5, 37° C., 10 mmol/L potassium chloride. The procedure:
Proton Potassium-Adenosine Triphosphatase (H^+,K^+-ATPase) Inhibitory Activity Test
According to the method [Biochim. Biophys. Acta, 728, 31 (1983)] of Wallmark et al., a gastric mucous membrane microsomal fraction was prepared from the stomach of swine. First, the stomach was removed, washed with tap water, and immersed in 3 mol/L brine, and the surface of the mucous membrane was wiped with a paper towel. The gastric mucous membrane was detached, chopped, and homogenized in a 0.25 mol/L saccharose solution (pH 6.8) containing 1 mmol/L EDTA and 10 mmol/L tris-hydrochloric acid using polytron (Kinematica). The obtained homogenate was centrifuged at 20,000×g for 30 min and the supernatant was centrifuged at 100,000×g for 90 min. The precipitate was suspended in 0.25 mol/L saccharose solution, the suspension was superimposed on a 0.25 mol/L saccharose solution containing 7.5% Ficoll, and centrifuged at 100,000×g for 5 hr. The fraction containing the interface between the both layers was recovered, and centrifugally washed with 0.25 mol/L saccharose solution.
The obtained microsomal fraction was used as a proton, potassium-adenosine triphosphatase standard product.
To 40 μL of a 50 mmol/L HEPES-tris buffer (5 mmol/L magnesium chloride, 10 mmol/L potassium chloride, 10 μmol/L valinomycin, pH=6.5) containing 2.5 μg/mL (based on the protein concentration) of the enzyme standard product was added a test compound (5 μL) dissolved in a 10% aqueous dimethyl sulfoxide solution, and the mixture was incubated at 37° C. for 30 min. The enzyme reaction was started by adding 5 μL of a 2 mmol/L adenosine triphosphate tris salt solution (50 mmol/L HEPES-tris buffer (5 mmol/L magnesium chloride, pH 6.5)). The enzyme reaction was carried out at 37° C. for 20 min, and 15 μL of a malachite green solution (0.12% malachite green solution in sulfuric acid (2.5 mol/L), 7.5% ammonium molybdate and 11% Tween 20 were mixed at a ratio of 100:25:2) was added to quench the reaction. After allowing to stand at room temperature for 15 min, the resulting reaction product of inorganic phosphorus with malachite green was colorimetrically determined at a wavelength of 610 nm. In addition, the amount of the inorganic phosphoric acid in the reaction solution free of potassium chloride was measured in the same manner, which was subtracted from the inorganic phosphoric acid amount in the presence of potassium chloride to determine the proton, potassium-adenosine triphosphatase activity. The inhibitory rate (%) was determined from the activity value of the control and the activity values of various concentrations of the test compound, and the 50% inhibitory concentration (IC50) of the proton, potassium-adenosine triphosphatase was determined.
In turn, `CNCc1nc(-c2cccnc2F)c(S(=O)(=O)c2cccnc2)s1` [Example 60, 1-[4-(2-fluoropyridin-3-yl)-5-(pyridin-3-ylsulfonyl)-1,3-thiazol-2-yl]-N-methylmethanamine] gave a half-maximal inhibitory concentration (IC50) of 310 nM.
The molecule `CNCc1cn(S(=O)(=O)c2ccccc2)c(-c2ccccc2F)n1` [Example 67, 1-[2-(2-fluorophenyl)-1-(phenylsulfonyl)-1H-imidazol-4-yl]-N-methylmethanamine fumarate] registered a concentration for half-maximal inhibition (IC50) of 28 nM.
On to `CNCc1cc(S(=O)(=O)c2cccnc2)n(-c2cccc(F)c2Cl)n1` [Example 113, 1-[1-(2-chloro-3-fluorophenyl)-5-(pyridin-3-ylsulfonyl)-1H-pyrazol-3-yl]-N-methylmethanamine fumarate], for which the IC50 turned out to be 180 nM.
As to `CNCc1cc(S(=O)(=O)c2cccc(C#N)c2)n(-c2ccccc2Cl)n1` [Example 86, 3-({1-(2-chlorophenyl)-3-[(methylamino)methyl]-1H-pyrazol-5-yl}sulfonyl)benzonitrile hydrochloride], the IC50 was found to be 84 nM.
The figure for `CNCc1nc(-c2ccccc2F)c(S(=O)(=O)c2cccc(OC)c2)s1` [Example 13, 1-{4-(2-fluorophenyl)-5-[(3-methoxyphenyl)sulfonyl]-1,3-thiazol-2-yl}-N-methylmethanamine hydrochloride] is 46 nM; for `CNCc1cc(-c2cccnc2F)c(S(=O)(=O)c2ccccc2)s1` [Example 2, 1-[4-(2-fluoropyridin-3-yl)-5-(phenylsulfonyl)-2-thienyl]-N-methylmethanamine hydrochloride] it is 32 nM; for `CNCc1cc(-c2cccnc2F)c(S(=O)(=O)c2cccnc2)s1` [Example 48, 1-[4-(2-fluoropyridin-3-yl)-5-(pyridin-3-ylsulfonyl)thiophen-2-yl]-N-methylmethanamine] it is 240 nM.
The molecule `CNCc1cc(S(=O)(=O)c2cccnc2)c(-c2cccnc2F)s1` [Example 65, 1-[5-(2-fluoropyridin-3-yl)-4-(pyridin-3-ylsulfonyl)thiophen-2-yl]-N-methylmethanamine] yielded a half-maximal inhibitory concentration (IC50) of 250 nM.
Molecule `CNCc1cn(S(=O)(=O)c2cccs2)c(-c2ccccc2F)n1` [Example 18, 1-[2-(2-fluorophenyl)-1-(2-thienylsulfonyl)-1H-imidazol-4-yl]-N-methylmethanamine fumarate] gave a 50% inhibitory concentration (IC50) of 64 nM.
Molecule `CNCc1cc(S(=O)(=O)c2cccnc2)n(-c2ccccc2F)n1` [Example 81, 1-[1-(2-fluorophenyl)-5-(pyridin-3-ylsulfonyl)-1H-pyrazol-3-yl]-N-methylmethanamine] registered a concentration for half-maximal inhibition (IC50) of 130 nM.
With `CNCc1cc(S(=O)(=O)c2cccnc2)n(-c2cccc(F)c2F)n1` [Example 98, 1-[1-(2,3-difluorophenyl)-5-(pyridin-3-ylsulfonyl)-1H-pyrazol-3-yl]-N-methylmethanamine], half-maximal inhibition (IC50) required 220 nM.
As for `CNCc1nc(-c2ccccc2F)c(S(=O)(=O)c2cccnc2)s1` [Example 56, 1-[4-(2-fluorophenyl)-5-(pyridin-3-ylsulfonyl)-1,3-thiazol-2-yl]-N-methylmethanamine fumarate], the midpoint of inhibition, the IC50, lay at 240 nM.
The figure for `CNCc1cc(-c2ccccc2F)c(S(=O)(=O)c2ccccc2)s1` [Example 19, 1-[4-(2-fluorophenyl)-5-(phenylsulfonyl)thiophen-2-yl]-N-methylmethanamine hydrochloride] is 88 nM; for `CNCc1cc(S(=O)(=O)c2ccccc2)n(-c2cccnc2F)n1` [Example 79, 1-[1-(2-fluoropyridin-3-yl)-5-(phenylsulfonyl)-1H-pyrazol-3-yl]-N-methylmethanamine] it is 190 nM; for `CNCc1cc(-c2ccccc2F)c(S(=O)(=O)c2cccc(OC)c2)s1` [Example 4, 1-{4-(2-fluorophenyl)-5-[(3-methoxyphenyl)sulfonyl]-2-thienyl}-N-methylmethanamine fumarate] it is 64 nM.
The same measure for `CNCc1cc(S(=O)(=O)c2ccc(C)nc2)n(-c2cccc(F)c2F)n1` [Example 99, 1-{1-(2,3-difluorophenyl)-5-[(6-methylpyridin-3-yl)sulfonyl]-1H-pyrazol-3-yl}-N-methylmethanamine]: 76 nM; for `CNCc1cc(S(=O)(=O)c2cccnc2)n(-c2ccccc2Cl)n1` [Example 87, 1-[1-(2-chlorophenyl)-5-(pyridin-3-ylsulfonyl)-1H-pyrazol-3-yl]-N-methylmethanamine]: 86 nM.
For the molecule `CNCc1cc(S(=O)(=O)c2ccc(C)nc2)n(-c2ccccc2Cl)n1` [Example 89, 1-{1-(2-chlorophenyl)-5-[(6-methylpyridin-3-yl)sulfonyl]-1H-pyrazol-3-yl}-N-methylmethanamine], it took 110 nM to reach half-maximal inhibition (IC50).

The term IC50 denotes the concentration at which inhibition is half-maximal.
